Data published in ChEMBL document CHEMBL4219272, “Synthesis and biological evaluation of curcumin derivatives modified with α-amino boronic acid as proteasome inhibitors” (Bioorg Med Chem Lett, 2018).

Assays:
[1] = Aqueous solubility of the compound; type: physicochemical; conditions: buffer
HCT-116 [2] = assay: Antiproliferative activity against human HCT116 cells after 72 hrs by MTT assay; type: functional, cell-based; conditions: HCT-116, 72 h
A549 = assay: Antiproliferative activity against human A549 cells after 72 hrs by MTT assay; type: functional, cell-based; conditions: A549, 72 h
[3] = Antiproliferative activity against human 95-D cells after 72 hrs by MTT assay; type: functional, cell-based
MDA-MB-231 = assay: Antiproliferative activity against human MDA-MB-231 cells after 72 hrs by MTT assay; type: functional, cell-based; conditions: MDA-MB-231, 72 h
[4] = target: T1, Proteasome Macropain subunit MB1 (Homo sapiens, UniProt P28074); assay: Inhibition of chymotrypsin-like activity of 20S proteasome in human K562 cells using Suc-LLVYaminoluciferin as substrate after 2 hrs by luminescence assay; type: cell-based
T1 sequence (P28074 whole entry): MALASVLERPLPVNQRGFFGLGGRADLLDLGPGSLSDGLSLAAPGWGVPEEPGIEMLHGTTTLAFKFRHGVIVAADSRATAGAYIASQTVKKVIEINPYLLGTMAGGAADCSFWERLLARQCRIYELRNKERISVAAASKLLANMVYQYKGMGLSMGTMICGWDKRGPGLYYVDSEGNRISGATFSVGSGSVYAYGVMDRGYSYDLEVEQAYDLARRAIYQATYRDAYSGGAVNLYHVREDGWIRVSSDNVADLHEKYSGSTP

LNCaP = assay: Growth inhibition of human LNCAP cells at 5 to 10 uM after 48 hrs by MTT assay relative to control; type: functional
[5] = target: T1, Proteasome Macropain subunit MB1; assay: Inhibition of chymotrypsin-like activity of 20S proteasome in human LNCAP cell extract using Suc-LLVYaminoluciferin as substrate after 2 hrs
[6] = target: T1, Proteasome Macropain subunit MB1; assay: Inhibition of chymotrypsin-like activity of 20S proteasome in human PC3 cell extract using Suc-LLVYaminoluciferin as substrate after 2 hrs
HCT-116 [7] = assay: Antiproliferative activity against human HCT116 cells after 36 hrs by XTT assay; type: functional, cell-based; conditions: HCT-116, 36 h

SMILES	IC50 (HCT-116 [2]) [nM]	other results
O=C1/C(=C/c2ccc([N+](=O)[O-])cc2)CNC/C1=C\c1ccc([N+](=O)[O-])cc1		solubility [1]: Insoluble
O=C1/C(=C/c2ccc(F)cc2)CNC/C1=C\c1ccc(F)cc1		solubility [1]: Soluble
CC(C)C[C@H](NC(=O)[C@@H](NC(=O)N1C/C(=C\c2ccc(F)cc2)C(=O)/C(=C/c2ccc(F)cc2)C1)C(C)C)B1OC(C)(C)C(C)(C)O1	534	
CC(C)C[C@H](NC(=O)[C@H](Cc1ccccc1)NC(=O)N1C/C(=C\c2ccc(F)cc2)C(=O)/C(=C/c2ccc(F)cc2)C1)B1OC(C)(C)C(C)(C)O1	201	
CC(C)C[C@H](NC(=O)[C@H](Cc1ccc2ccccc2c1)NC(=O)N1C/C(=C\c2ccc(F)cc2)C(=O)/C(=C/c2ccc(F)cc2)C1)B1OC(C)(C)C(C)(C)O1	172	
CC(C)C[C@H](NC(=O)[C@H](CC(C)C)NC(=O)N1C/C(=C\c2ccc(F)cc2)C(=O)/C(=C/c2ccc(F)cc2)C1)B1OC(C)(C)C(C)(C)O1	639	
CC(C)(C)[C@H](NC(=O)N1C/C(=C\c2ccc(F)cc2)C(=O)/C(=C/c2ccc(F)cc2)C1)B1OC(C)(C)C(C)(C)O1	828	
COc1cc(/C=C/C(=O)CC(=O)/C=C/c2ccc(OC(=O)[C@@H](N)C(C)C)c(OC)c2)ccc1OC(=O)[C@@H](N)C(C)C		growth inhibition (GI) (LNCaP): 38 - 71%; IC50 [5]: 10000 nM; IC50 [4]: > 5000 nM; IC50 [6]: 10000 nM
COc1cc(/C=C/C(=O)CC(=O)/C=C/c2ccc(O)c(OC)c2)ccc1O [CURCUMIN]	10900	IC50 (A549): > 10000 nM; IC50 (HCT-116 [7]): 50000 nM; IC50 [3]: > 10000 nM; IC50 (MDA-MB-231): > 10000 nM

More lines, main results first:

IC50 (HCT-116 [2]) [nM]	SMILES	other results
785	CCC[C@H](NC(=O)N1C/C(=C\c2ccc(F)cc2)C(=O)/C(=C/c2ccc(F)cc2)C1)B1OC(C)(C)C(C)(C)O1	
824 to 854	CC(C)C[C@H](NC(=O)N1C/C(=C\c2ccc(F)cc2)C(=O)/C(=C/c2ccc(F)cc2)C1)B1OC(C)(C)C(C)(C)O1	IC50 (A549): 5050 nM; IC50 [3]: 1120 nM; IC50 (MDA-MB-231): 3310 nM
1040	CC1(C)OB([C@H](CCc2ccccc2)NC(=O)N2C/C(=C\c3ccc(F)cc3)C(=O)/C(=C/c3ccc(F)cc3)C2)OC1(C)C	
1630	CC(C)C[C@H](NC(=O)N1CCN(C(=O)N2C/C(=C\c3ccc(F)cc3)C(=O)/C(=C/c3ccc(F)cc3)C2)CC1)B1OC(C)(C)C(C)(C)O1	
903	CC1(C)OB([C@@H](NC(=O)N2C/C(=C\c3ccc(F)cc3)C(=O)/C(=C/c3ccc(F)cc3)C2)C2CCCCC2)OC1(C)C	
375	CC(C)C[C@H](NC(=O)CNC(=O)N1C/C(=C\c2ccc(F)cc2)C(=O)/C(=C/c2ccc(F)cc2)C1)B1OC(C)(C)C(C)(C)O1	
599	CC1(C)OB([C@H](Cc2ccccc2)NC(=O)N2C/C(=C\c3ccc(F)cc3)C(=O)/C(=C/c3ccc(F)cc3)C2)OC1(C)C	
876	CC[C@H](NC(=O)N1C/C(=C\c2ccc(F)cc2)C(=O)/C(=C/c2ccc(F)cc2)C1)B1OC(C)(C)C(C)(C)O1	
203	CC(C)C[C@H](NC(=O)[C@H](Cc1ccccc1)NC(=O)N1C/C(=C\c2ccc(F)cc2)C(=O)/C(=C/c2ccc(F)cc2)C1)B(O)O	IC50 [4]: 835 nM
908	CC(C)[C@H](NC(=O)N1C/C(=C\c2ccc(F)cc2)C(=O)/C(=C/c2ccc(F)cc2)C1)B1OC(C)(C)C(C)(C)O1	
